The supplement of paper PMC10307832

Columns and labels:
Assay in all cases: relative viability (nuclei count vs DMSO), 5 days (fraction); higher = more cells survive
ALW-II-49-7 + Alpelisib = compound: Cc1ccc(C(=O)Nc2cccc(C(F)(F)F)c2)cc1Nc1cncc(C(N)=O)c1 [ALW-II-49-7] + Cc1nc(NC(=O)N2CCC[C@H]2C(N)=O)sc1-c1ccnc(C(C)(C)C(F)(F)F)c1 [Alpelisib] (partner 2 µM)
How it was run: (§1)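 A single step with final 0.05% Triton X-100, 1% formaldehyde and 1 ug/ml Hoechst fixed the cells and stained nuclei 5 days after treatment. Lung cancer cell lines in 1536-well plates had been treated by pin tool the day after seeding with one drug alone or a fixed anchor-drug dose plus five library-drug doses (not always all listed) in √10 steps, and nuclei were counted on 4× images. Relative viability is the ratio of nuclei in treated wells to nuclei in vehicle wells, taken as the median of duplicate plates.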

ALW-II-49-7 + Navitoclax = compound: Cc1ccc(C(=O)Nc2cccc(C(F)(F)F)c2)cc1Nc1cncc(C(N)=O)c1 [ALW-II-49-7] + CC1(C)CCC(c2ccc(Cl)cc2)=C(CN2CCN(c3ccc(C(=O)NS(=O)(=O)c4ccc(N[C@H](CCN5CCOCC5)CSc5ccccc5)c(S(=O)(=O)C(F)(F)F)c4)cc3)CC2)C1 [Navitoclax] (partner 0.5 µM)
How it was run: as §1

Dasatinib + Vorinostat = compound: Cc1nc(Nc2ncc(C(=O)Nc3c(C)cccc3Cl)s2)cc(N2CCN(CCO)CC2)n1 [Dasatinib] + O=C(CCCCCCC(=O)Nc1ccccc1)NO [Vorinostat] (partner 1 µM)
How it was run: as §1

Dasatinib + Luminespib = compound: Cc1nc(Nc2ncc(C(=O)Nc3c(C)cccc3Cl)s2)cc(N2CCN(CCO)CC2)n1 [Dasatinib] + CCNC(=O)c1noc(-c2cc(C(C)C)c(O)cc2O)c1-c1ccc(CN2CCOCC2)cc1 [Luminespib] (partner 0.01 µM)
How it was run: as §1

Cell Line	relative viability (ALW-II-49-7 + Alpelisib; first compound 0.08 µM)	relative viability (ALW-II-49-7 + Alpelisib; first compound 0.253 µM)	relative viability (ALW-II-49-7 + Alpelisib; first compound 0.8 µM)	relative viability (ALW-II-49-7 + Alpelisib; first compound 2.53 µM)	relative viability (ALW-II-49-7 + Alpelisib; first compound 8 µM)	relative viability (ALW-II-49-7 + Navitoclax; first compound 0.08 µM)	relative viability (ALW-II-49-7 + Navitoclax; first compound 0.253 µM)	relative viability (ALW-II-49-7 + Navitoclax; first compound 0.8 µM)	relative viability (ALW-II-49-7 + Navitoclax; first compound 2.53 µM)	relative viability (ALW-II-49-7 + Navitoclax; first compound 8 µM)	relative viability (Dasatinib + Vorinostat; first compound 0.005 µM)	relative viability (Dasatinib + Vorinostat; first compound 0.01581 µM)	relative viability (Dasatinib + Vorinostat; first compound 0.05 µM)	relative viability (Dasatinib + Vorinostat; first compound 0.1581 µM)	relative viability (Dasatinib + Vorinostat; first compound 0.5 µM)	relative viability (Dasatinib + Luminespib; first compound 0.005 µM)	relative viability (Dasatinib + Luminespib; first compound 0.01581 µM)	relative viability (Dasatinib + Luminespib; first compound 0.05 µM)	relative viability (Dasatinib + Luminespib; first compound 0.1581 µM)	relative viability (Dasatinib + Luminespib; first compound 0.5 µM)
NCI-H1355	0.696	0.867	0.832	0.679	0.645	0.93	0.988	0.981	0.715	0.802	0.618	0.54	0.655	0.445	0.331	0.766	0.561	0.569	0.458	0.435
COR-L23	0.756	0.536	0.741	0.898	0.667	1.14	0.954	1.04	0.805	1.27	0.419	0.342	0.323	0.237	0.24	0.698	0.531	0.7	0.461	0.299
NCI-H2023	0.66	0.575	0.657	0.641	0.677	0.925	1.1	1.03	1.01	1.02	0.681	0.688	0.568	0.561	0.429	0.646	0.669	0.599	0.518	0.507
A-427	1.25	1.06	1.13	1.21	1.12	1.07	0.942	0.998	0.994	1.05	0.831	0.766	0.793	0.517	0.495	0.742	0.704	0.739	0.673	0.486
NCI-H1793	0.717	0.673	0.752	0.716	0.884	0.268	0.505	0.463	0.363	0.463	0.56	0.571	0.46	0.357	0.344	0.164	0.14	0.148	0.128	0.104
NCI-H596	0.443	0.513	0.497	0.469	0.438	0.98	0.784	0.85	0.972	0.927	0.59	0.384	0.412	0.313	0.322	0.809	0.691	0.776	0.552	0.478
LU99A	0.491	0.527	0.481	0.482	0.532	0.899	0.838	0.926	0.895	0.779	0.464	0.448	0.515	0.366	0.288	0.229	–	0.247	0.143	0.166
NCI-H2009	1.12	1.09	1.12	0.957	0.825	1.1	1.16	1.12	0.904	0.983	0.75	0.681	0.762	0.426	0.133	1.05	1.02	1.1	0.605	0.168
